Patent US8562949B2, “Radiolabeled dihydrotetrabenazine derivatives and their use as imaging agents” (The Trustees of the University of Pennsylvania, priority 2006, dated 2013)

Key:
[1] = molecular target: VMAT2 (Mus musculus, UniProt Q8BRU6); assay: Blocking study in normal mice, co-injection of DTBZ or raclopride; type: in vivo; parameters: from tissue; host or cells: living ICR mice and lesioned mice; brain regions dissected after iv injection; details: 30 min after iv
Experimental: While under isoflurane anesthesia, 0.15 mL of a 0.1% bovine serum albumin solution containing [^18F]tracers (10-20 μCi) were injected directly into the tail vein of ICR mice (22-25 g, male) The mice (n=3 for each time point) were sacrificed by cervical dislocation at indicated time points post injection. The organs of interest were removed and weighed, and the radioactivity was counted with an automatic gamma counter. The percentage dose per organ was calculated by a comparison of the tissue counts to suitably diluted aliquots of the injected material. Total activities of blood were calculated under the assumption that they were 7% of the total body weight. The % dose/g of samples was calculated by comparing the sample counts with the count of the diluted initial dose. Different regions corresponding to striatum (ST), hippocampus (HP), cerebellum (CB), and cortex (CX) were dissected out from the brain.
Blocking studies were carried out by co-injection (iv) of the ^18F tracer with (±)DTBZ (3 mg/kg) or raclopride (1.2 mg/kg) into the animals. Thirty minutes after the injection, the animals were sacrificed and the brain regions including ST, HP, CB and CX were dissected out and the % dose/g were calculated. The ratios of target (ST) vs nontarget (CB) were compared between control and blocked groups.

[2] = test system: islet cell homogenates; assay: In vitro binding to islet cell homogenates (FIG. 8)

Chain of VMAT2 (Q8BRU6 whole entry): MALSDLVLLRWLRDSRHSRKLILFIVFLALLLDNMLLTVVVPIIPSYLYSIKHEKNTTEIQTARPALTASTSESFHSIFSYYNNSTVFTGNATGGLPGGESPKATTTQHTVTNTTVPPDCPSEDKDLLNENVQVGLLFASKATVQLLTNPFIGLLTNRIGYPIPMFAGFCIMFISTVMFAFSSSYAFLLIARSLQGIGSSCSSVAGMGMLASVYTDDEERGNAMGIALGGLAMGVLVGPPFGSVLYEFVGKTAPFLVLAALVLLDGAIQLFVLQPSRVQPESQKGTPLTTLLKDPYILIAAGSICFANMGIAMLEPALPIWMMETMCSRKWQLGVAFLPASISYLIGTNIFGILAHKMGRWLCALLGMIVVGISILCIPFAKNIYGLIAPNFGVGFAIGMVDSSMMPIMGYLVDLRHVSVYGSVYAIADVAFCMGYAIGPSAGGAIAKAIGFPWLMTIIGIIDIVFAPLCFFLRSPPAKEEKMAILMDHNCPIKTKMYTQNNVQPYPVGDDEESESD

## COc1cc2c(cc1OCCC[18F])CCN1CC(CC(C)C)C(O)CC21 (racemic) [[^18F]6b]
[1]; Control
  Organ distribution Blood: 1.41 ± 0.20 % dose/g
  Organ distribution Bone: 6.06 ± 1.11 % dose/g
  Organ distribution Brain: 1.40 ± 0.12 % dose/g
  Organ distribution Heart: 2.05 ± 0.13 % dose/g
  Organ distribution Kidney: 5.90 ± 0.42 % dose/g
  Organ distribution Liver: 13.9 ± 1.15 % dose/g
  Organ distribution Lung: 2.78 ± 0.20 % dose/g
  Organ distribution Muscle: 1.06 ± 0.06 % dose/g
  Organ distribution Skin: 1.48 ± 0.09 % dose/g
  Organ distribution Spleen: 2.90 ± 0.14 % dose/g
  Ratio (vs CB) Cortex: 1.15
  Ratio (vs CB) Hippocampus: 1.36
  Ratio (vs CB) Hypothalamus: 2.54
  Ratio (vs CB) Striatum: 3.40
  Regional brain distribution Cerebellum (CB): 1.05 ± 0.09 % dose/g
  Regional brain distribution Cortex: 1.21 ± 0.15 % dose/g
  Regional brain distribution Hippocampus: 1.43 ± 0.12 % dose/g
  Regional brain distribution Hypothalamus: 2.67 ± 0.30 % dose/g
  Regional brain distribution Striatum: 3.57 ± 0.30 % dose/g
[1]; with 1.2 mg/kg raclopride
  Organ distribution Blood: 1.60 ± 0.08 % dose/g
  Organ distribution Bone: 6.03 ± 1.07 % dose/g
  Organ distribution Brain: 1.64 ± 0.16 % dose/g
  Organ distribution Heart: 2.29 ± 0.06 % dose/g
  Organ distribution Kidney: 6.01 ± 0.50 % dose/g
  Organ distribution Liver: 14.6 ± 0.44 % dose/g
  Organ distribution Lung: 3.34 ± 0.24 % dose/g
  Organ distribution Muscle: 1.15 ± 0.03 % dose/g
  Organ distribution Skin: 1.58 ± 0.09 % dose/g
  Organ distribution Spleen: 3.25 ± 0.20 % dose/g
  Ratio (vs CB) Cortex: 1.18
  Ratio (vs CB) Hippocampus: 1.59
  Ratio (vs CB) Hypothalamus: 2.12
  Ratio (vs CB) Striatum: 3.93
  Regional brain distribution Cerebellum (CB): 1.19 ± 0.11 % dose/g
  Regional brain distribution Cortex: 1.41 ± 0.15 % dose/g
  Regional brain distribution Hippocampus: 1.89 ± 0.85 % dose/g
  Regional brain distribution Hypothalamus: 2.52 ± 0.77 % dose/g
  Regional brain distribution Striatum: 4.67 ± 1.29 % dose/g
[1]; with 3 mg/kg (+)DTBZ
  Organ distribution Blood: 1.67 ± 0.04 % dose/g
  Organ distribution Bone: 6.54 ± 0.84 % dose/g
  Organ distribution Brain: 0.86 ± 0.04 % dose/g
  Organ distribution Heart: 2.36 ± 0.07 % dose/g
  Organ distribution Kidney: 4.94 ± 3.38 % dose/g
  Organ distribution Liver: 14.0 ± 0.56 % dose/g
  Organ distribution Lung: 3.27 ± 0.17 % dose/g
  Organ distribution Muscle: 1.28 ± 0.07 % dose/g
  Organ distribution Skin: 1.67 ± 0.02 % dose/g
  Organ distribution Spleen: 2.67 ± 0.17 % dose/g
  Ratio (vs CB) Cortex: 1.03
  Ratio (vs CB) Hippocampus: 0.94
  Ratio (vs CB) Hypothalamus: 1.04
  Ratio (vs CB) Striatum: 0.98
  Regional brain distribution Cerebellum (CB): 0.89 ± 0.16 % dose/g
  Regional brain distribution Cortex: 0.91 ± 0.13 % dose/g
  Regional brain distribution Hippocampus: 0.83 ± 0.27 % dose/g
  Regional brain distribution Hypothalamus: 0.92 ± 0.23 % dose/g
  Regional brain distribution Striatum: 0.87 ± 0.18 % dose/g

## COc1cc2c(cc1OCCC[18F])CCN1C[C@@H](CC(C)C)[C@H](O)C[C@H]21 [[^18F]-(+)-6b]
[2]
  binding to islet cell homogenates: specific and saturable
